Laboratory results as given in ChEMBL document CHEMBL3301448, “MMV Malaria Box screening against Toxoplasma gondii and Entamoeba histolytica”.

Each molecule was assayed on Entamoeba histolytica (assay: MMV: Primary screening was performed with each compound at a 30 uM final concentration and in triplicate in sealed 96-well polystyrene microtiter plates. Parasite inocula (100 ul) comprising 20000 parasites/ml were added to each well and grown at 37 degrees C in a humidified atmosphere of 5% CO2 for 72 h. Positive controls consisted of metronidazole at 1 mg/ml. The growth of E. histolytica trophozoites in each well was determined microscopically by measuring the diameters of the confluent cells in drug-containing wells relative to those in the nega- tive-control wells.). Conditions: not given.
Assay type: functional, organism-based

Row | Structure (SMILES) | IC50
1 | COc1ccc2c(c1)C1(Nc3ccccc3-c3nc4ccccc4n31)C(=O)N2 (stereo not given) | > 30 µM
2 | COc1cccc(Cn2c(Oc3ccccc3)nc3c2c(=O)n(C)c(=O)n3C)c1 | > 30 µM
3 | CCOc1cc(CNC(C)C(O)c2ccccc2)cc(Cl)c1OCC (stereo not given) | > 30 µM
4 | CCOc1c(Cl)cc(CNCC(O)c2ccccc2)cc1OC (stereo not given) | > 30 µM
5 | OC(CNCC1CCCO1)Cn1c2ccc(Cl)cc2c2cc(Cl)ccc21 (stereo not given) | > 30 µM
6 | COc1ccc2nc(C)cc(Nc3ccccc3O)c2c1 | > 30 µM
7 | CCn1nc(-c2ccc(C(=O)OC)cc2)nc2c(=O)n(C)c(=O)nc1-2 | > 30 µM
8 | CCOc1ccccc1CN1CCc2nc3cc(C(C)(C)C)nn3c(O)c2C1 | > 30 µM
9 | Cc1cc(N2CCCC2)nc(Nc2ccc(NC(=O)CCc3ccccc3)cc2)n1 | > 30 µM
10 | CN1CCN(c2ncnc3c2[nH]c2ccc(Cl)cc23)CC1 | > 30 µM
11 | CC1(c2ccccc2)Nc2ccccc2-c2nc3ccccc3n21 (stereo not given) | > 30 µM
12 | COc1cccc(C2(C)Nc3ccccc3-c3nc4ccccc4n32)c1 (stereo not given) | > 30 µM
13 | CC(C)CNC(=O)c1c(N)n(CCc2ccccc2F)c2nc3ccccc3nc12 | > 30 µM
14 | CC(C)(C)CC(C)(C)NCC(O)COc1ccc(Cl)cc1Cl (stereo not given) | > 30 µM
15 | O=C1c2ccccc2-c2nnc(-c3ccc(Br)cc3)cc21 | > 30 µM
16 | O=C(Nc1ccc(Br)cc1)Nc1cccc(Cl)c1 | > 30 µM
17 | CN(C)CCNc1cc(-c2ccccc2)nc2ccccc12 | > 30 µM
18 | CCOC(=O)C1=C(C)N=c2sc(=Cc3cc(Cl)ccc3O)c(=O)n2C1c1ccc(OC)cc1 (stereo not given) | > 30 µM
19 | Cc1nc2ccccc2c(O)c1CC=C(Cl)Cl | > 30 µM
20 | COc1ccc2nc(C)cc(Nc3ccc(Cl)cc3)c2c1 | > 30 µM
21 | O=C(NC1CCN(Cc2ccccc2)CC1)c1cc(-c2ccncc2)nc2ccc(Cl)cc12 | > 30 µM
22 | CCC(O)c1ccc(Br)cc1NC(=O)c1cccc(Cl)c1 (stereo not given) | > 30 µM
23 | COc1ccc2nc(C)cc(Nc3cccc(O)c3)c2c1 | > 30 µM

Row | Structure (SMILES) | IC50
24 | CN(C)CCCNCc1ccc(-c2ccc(F)c(Cl)c2)o1 | > 30 µM
25 | O=c1nc(C=Cc2ccc(Br)cc2)oc2ccccc12 | > 30 µM
26 | COc1ccc2nc(N)nc(C)c2c1 | > 30 µM
27 | CC(=O)c1ccc(NC(=O)CSc2nc(-c3ccccc3Cl)ns2)cc1 | > 30 µM
28 | Cc1sc2ncnc(Sc3nc4ccccc4[nH]3)c2c1C | > 30 µM
29 | COc1ccc(C(=O)NC(c2ccc(Cl)cc2Cl)c2cc(Cl)c3cccnc3c2O)cc1 (stereo not given) | > 30 µM
30 | CCC(=O)Nc1nnc(Cc2ccc(OC)c(OC)c2)s1 | > 30 µM
31 | O=C(NCCCN1CCC(N2CCCCC2)CC1)C1=Cc2cc(Br)ccc2OC1 | > 30 µM
32 | CC(=O)Nc1nnc(SCc2c(C)cc(C(C)(C)C)cc2C)s1 | > 30 µM
33 | O=C(Nc1ccc(CN2CCOCC2)cc1)c1ccc(-c2cc(Cl)ccc2Cl)o1 | > 30 µM
34 | Cc1cc(Nc2cccc(F)c2)nc(NCc2ccccc2)n1 | > 30 µM
35 | CCOc1ccc(C2N(C)c3ccccc3N2C)cc1 | > 30 µM
36 | Cc1ccc(OCCCCCCNCCO)c(C)c1 | > 30 µM
37 | COc1cccc(C(=O)Nc2ccc(-c3nc4ccccc4[nH]3)cc2)c1 | > 30 µM
38 | COCCn1c(C)nc2ccccc2c1=O | > 30 µM
39 | O=C(Nc1cccc(-c2nc3ccccc3[nH]2)c1)c1cccc(NC(=O)c2ccco2)c1 | > 30 µM
40 | O=C(NC1CCN(Cc2ccccc2)CC1)c1cc(-c2cccnc2)nc2ccc(Cl)cc12 | > 30 µM
41 | CCN(Cc1ccccc1)C1CCN(Cc2cc(Br)ccc2O)CC1 | > 30 µM
42 | CCOc1cccc(C(=O)Nc2ccc(-c3nc4ccccc4[nH]3)cc2)c1 | > 30 µM
43 | Clc1cc(Br)ccc1-c1ccc(CNCC2CCNCC2)o1 | > 30 µM
44 | CCOC(=O)c1cnc2ccc(Cl)cc2c1NCCCN(C)C | > 30 µM
45 | CCOc1ccccc1NC(=O)CN1CCN(C(=O)c2ccco2)CC1 | > 30 µM

The molecules below were run on Toxoplasma gondii (assay: MMV: A total of 100ul of inoculum was added to each well (parasite/cell ratio, ~10:1; final volume, 200 ul). Six hours after inoculation, nonadherent parasites were removed, and 100 ul of complete DMEM (1% penicillin-streptomycin, 3% FBS) supplemented with inhibitors at different concentrations (2-fold serial dilutions starting from 30 uM) was added to all except the negative-control wells. Positive controls, consisting of pyrimethamine (PYR) and sulfadiazine (SDZ) (20-mg/ml stocks in DMSO), were tested at a 2mg/ml final concentration. Each test was performed in triplicate.). Conditions: 6 h.
Assay type: functional, organism-based

Row | Structure (SMILES) | IC50
46 | COc1ccc2c(c1)C1(Nc3ccccc3-c3nc4ccccc4n31)C(=O)N2 (stereo not given) | > 30 µM
47 | COc1cccc(Cn2c(Oc3ccccc3)nc3c2c(=O)n(C)c(=O)n3C)c1 | > 30 µM
48 | CCOc1cc(CNC(C)C(O)c2ccccc2)cc(Cl)c1OCC (stereo not given) | > 30 µM
49 | CCOc1c(Cl)cc(CNCC(O)c2ccccc2)cc1OC (stereo not given) | > 30 µM
50 | OC(CNCC1CCCO1)Cn1c2ccc(Cl)cc2c2cc(Cl)ccc21 (stereo not given) | > 30 µM
51 | COc1ccc2nc(C)cc(Nc3ccccc3O)c2c1 | > 30 µM
52 | CCn1nc(-c2ccc(C(=O)OC)cc2)nc2c(=O)n(C)c(=O)nc1-2 | > 30 µM
53 | CCOc1ccccc1CN1CCc2nc3cc(C(C)(C)C)nn3c(O)c2C1 | > 30 µM
54 | Cc1cc(N2CCCC2)nc(Nc2ccc(NC(=O)CCc3ccccc3)cc2)n1 | > 30 µM
55 | CN1CCN(c2ncnc3c2[nH]c2ccc(Cl)cc23)CC1 | > 30 µM
56 | CC1(c2ccccc2)Nc2ccccc2-c2nc3ccccc3n21 (stereo not given) | > 30 µM
57 | COc1cccc(C2(C)Nc3ccccc3-c3nc4ccccc4n32)c1 (stereo not given) | > 30 µM
58 | CC(C)CNC(=O)c1c(N)n(CCc2ccccc2F)c2nc3ccccc3nc12 | 26.8 µM
59 | CC(C)(C)CC(C)(C)NCC(O)COc1ccc(Cl)cc1Cl (stereo not given) | > 30 µM
60 | O=C1c2ccccc2-c2nnc(-c3ccc(Br)cc3)cc21 | > 30 µM
61 | O=C(Nc1ccc(Br)cc1)Nc1cccc(Cl)c1 | > 30 µM
62 | CN(C)CCNc1cc(-c2ccccc2)nc2ccccc12 | 3.05 µM
63 | CCOC(=O)C1=C(C)N=c2sc(=Cc3cc(Cl)ccc3O)c(=O)n2C1c1ccc(OC)cc1 (stereo not given) | 24.9 µM
64 | Cc1nc2ccccc2c(O)c1CC=C(Cl)Cl | > 30 µM
65 | COc1ccc2nc(C)cc(Nc3ccc(Cl)cc3)c2c1 | > 30 µM
66 | O=C(NC1CCN(Cc2ccccc2)CC1)c1cc(-c2ccncc2)nc2ccc(Cl)cc12 | > 30 µM
67 | CCC(O)c1ccc(Br)cc1NC(=O)c1cccc(Cl)c1 (stereo not given) | > 30 µM
68 | COc1ccc2nc(C)cc(Nc3cccc(O)c3)c2c1 | > 30 µM

Row | Structure (SMILES) | IC50
69 | CN(C)CCCNCc1ccc(-c2ccc(F)c(Cl)c2)o1 | > 30 µM
70 | O=c1nc(C=Cc2ccc(Br)cc2)oc2ccccc12 | > 30 µM
71 | COc1ccc2nc(N)nc(C)c2c1 | > 30 µM
72 | CC(=O)c1ccc(NC(=O)CSc2nc(-c3ccccc3Cl)ns2)cc1 | 14.9 µM
73 | Cc1sc2ncnc(Sc3nc4ccccc4[nH]3)c2c1C | 13.9 µM
74 | COc1ccc(C(=O)NC(c2ccc(Cl)cc2Cl)c2cc(Cl)c3cccnc3c2O)cc1 (stereo not given) | > 30 µM
75 | CCC(=O)Nc1nnc(Cc2ccc(OC)c(OC)c2)s1 | > 30 µM
76 | O=C(NCCCN1CCC(N2CCCCC2)CC1)C1=Cc2cc(Br)ccc2OC1 | > 30 µM
77 | CC(=O)Nc1nnc(SCc2c(C)cc(C(C)(C)C)cc2C)s1 | > 30 µM
78 | O=C(Nc1ccc(CN2CCOCC2)cc1)c1ccc(-c2cc(Cl)ccc2Cl)o1 | > 30 µM
79 | Cc1cc(Nc2cccc(F)c2)nc(NCc2ccccc2)n1 | > 30 µM
80 | CCOc1ccc(C2N(C)c3ccccc3N2C)cc1 | > 30 µM
81 | Cc1ccc(OCCCCCCNCCO)c(C)c1 | > 30 µM
82 | COc1cccc(C(=O)Nc2ccc(-c3nc4ccccc4[nH]3)cc2)c1 | > 30 µM
83 | COCCn1c(C)nc2ccccc2c1=O | > 30 µM
84 | O=C(Nc1cccc(-c2nc3ccccc3[nH]2)c1)c1cccc(NC(=O)c2ccco2)c1 | > 30 µM
85 | O=C(NC1CCN(Cc2ccccc2)CC1)c1cc(-c2cccnc2)nc2ccc(Cl)cc12 | > 30 µM
86 | CCN(Cc1ccccc1)C1CCN(Cc2cc(Br)ccc2O)CC1 | > 30 µM
87 | CCOc1cccc(C(=O)Nc2ccc(-c3nc4ccccc4[nH]3)cc2)c1 | > 30 µM
88 | Clc1cc(Br)ccc1-c1ccc(CNCC2CCNCC2)o1 | > 30 µM
89 | CCOC(=O)c1cnc2ccc(Cl)cc2c1NCCCN(C)C | > 30 µM
90 | CCOc1ccccc1NC(=O)CN1CCN(C(=O)c2ccco2)CC1 | 0.19 µM
